Measurements from the supplement of paper PMC10307832.

Tests used:
Assay in all cases: relative viability (nuclei count vs DMSO), 5 days (fraction); higher = more cells survive
Pictilisib + Pemetrexed = compound: CS(=O)(=O)N1CCN(Cc2cc3nc(-c4cccc5[nH]ncc45)nc(N4CCOCC4)c3s2)CC1 [Pictilisib] + Nc1nc2[nH]cc(CCc3ccc(C(=O)N[C@@H](CCC(=O)O)C(=O)O)cc3)c2c(=O)[nH]1 [Pemetrexed] (partner 0.2 µM)
How it was run: (§1)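 Lung cancer cell lines in 1536-well plates got either a single drug or a fixed anchor-drug dose together with five library-drug doses (not always all listed) in √10 steps, by pin tool, on the day after seeding. Nuclei were counted after 5 days, and relative viability is the treated-to-vehicle ratio of nuclei counts. Values are medians of duplicate plates.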

MK-2206 + AZD7762 = compound: NC1(c2ccc(-c3nc4ccn5c(=O)[nH]nc5c4cc3-c3ccccc3)cc2)CCC1 [MK-2206] + NC(=O)Nc1cc(-c2cccc(F)c2)sc1C(=O)N[C@H]1CCCNC1 [AZD7762] (partner 0.2 µM)
How it was run: as §1

Pictilisib + Bortezomib = compound: CS(=O)(=O)N1CCN(Cc2cc3nc(-c4cccc5[nH]ncc45)nc(N4CCOCC4)c3s2)CC1 [Pictilisib] + CC(C)C[C@H](NC(=O)[C@H](Cc1ccccc1)NC(=O)c1cnccn1)B(O)O [Bortezomib] (partner 0.002 µM)
How it was run: as §1

MK-2206 + Trametinib = compound: NC1(c2ccc(-c3nc4ccn5c(=O)[nH]nc5c4cc3-c3ccccc3)cc2)CCC1 [MK-2206] + CC(=O)Nc1cccc(-n2c(=O)n(C3CC3)c(=O)c3c(Nc4ccc(I)cc4F)n(C)c(=O)c(C)c32)c1 [Trametinib] (partner 0.02 µM)
How it was run: as §1

MK-2206 + Crizotinib = compound: NC1(c2ccc(-c3nc4ccn5c(=O)[nH]nc5c4cc3-c3ccccc3)cc2)CCC1 [MK-2206] + C[C@@H](Oc1cc(-c2cnn(C3CCNCC3)c2)cnc1N)c1c(Cl)ccc(F)c1Cl [Crizotinib] (partner 1 µM)
How it was run: as §1

Cell Line	relative viability (Pictilisib + Pemetrexed; first compound 0.02 µM)	relative viability (Pictilisib + Pemetrexed; first compound 0.06325 µM)	relative viability (Pictilisib + Pemetrexed; first compound 0.6325 µM)	relative viability (Pictilisib + Pemetrexed; first compound 2 µM)	relative viability (MK-2206 + AZD7762; first compound 0.01 µM)	relative viability (MK-2206 + AZD7762; first compound 0.03162 µM)	relative viability (MK-2206 + AZD7762; first compound 0.3162 µM)	relative viability (MK-2206 + AZD7762; first compound 1 µM)	relative viability (Pictilisib + Bortezomib; first compound 0.02 µM)	relative viability (Pictilisib + Bortezomib; first compound 0.06325 µM)	relative viability (Pictilisib + Bortezomib; first compound 0.6325 µM)	relative viability (Pictilisib + Bortezomib; first compound 2 µM)	relative viability (MK-2206 + Trametinib; first compound 0.01 µM)	relative viability (MK-2206 + Trametinib; first compound 0.03162 µM)	relative viability (MK-2206 + Trametinib; first compound 0.3162 µM)	relative viability (MK-2206 + Trametinib; first compound 1 µM)	relative viability (MK-2206 + Crizotinib; first compound 0.01 µM)	relative viability (MK-2206 + Crizotinib; first compound 0.03162 µM)	relative viability (MK-2206 + Crizotinib; first compound 0.3162 µM)	relative viability (MK-2206 + Crizotinib; first compound 1 µM)
HCC-44	0.655	0.642	0.695	0.673	0.961	0.98	1.04	1.02	1.04	0.9	0.994	0.631	0.927	1.02	1.11	1.04	0.826	0.787	0.756	0.818
IA-LM	–	–	–	–	–	–	–	–	0.791	0.721	0.732	0.308	–	–	–	–	–	0.867	0.807	0.819
NCI-H520	0.613	0.624	0.268	0.148	–	–	–	–	0.632	0.464	0.291	0.156	0.833	0.569	0.277	0.187	0.833	0.741	0.42	0.421
ABC-1	–	–	–	–	0.795	0.787	0.85	0.814	0.313	0.316	0.281	0.223	–	–	–	–	1.3	1.26	1.14	1.02
NCI-H1395	1.01	0.905	0.745	0.373	0.407	0.369	0.388	0.351	–	–	–	–	1.02	1.16	0.804	0.897	–	–	–	–
EBC-1	–	–	–	–	–	–	–	–	0.474	0.603	0.414	0.255	–	–	–	–	0.189	0.205	0.198	0.172
NCI-H2009	1.04	1.12	1.17	0.875	–	–	–	–	1.06	1.05	0.871	0.671	0.252	0.299	0.248	0.254	1.04	1.05	1.12	1.04
NCI-H358	0.172	0.165	0.161	0.133	0.628	0.423	0.552	0.609	–	–	–	–	0.146	0.145	0.132	0.117	0.773	0.638	0.563	0.562
SK-LU-1	0.967	1.07	0.835	0.624	–	–	–	–	1.64	1.27	0.81	0.63	0.556	0.513	0.449	0.431	0.941	0.912	0.964	0.877
NCI-H2228	0.316	0.252	0.334	0.119	–	–	–	–	0.915	1.04	0.689	0.528	0.375	0.433	0.284	0.448	0.445	0.348	0.343	0.339
NCI-H727	–	–	–	–	0.563	0.485	0.58	0.575	0.992	0.941	0.784	0.609	0.402	0.382	0.388	0.37	0.809	0.903	0.666	0.568
A549	–	–	–	–	–	–	–	–	–	–	–	–	–	–	–	–	0.733	0.744	0.641	0.535
NCI-H1563	0.742	0.764	0.635	0.45	–	–	–	–	0.992	0.839	0.605	0.554	–	–	–	–	0.771	0.828	0.75	0.604
NCI-H1703	–	–	–	–	0.14	0.105	0.112	0.112	0.327	0.235	0.19	0.13	–	–	–	–	0.809	0.658	0.302	0.511
NCI-H1299	–	–	–	–	–	–	–	–	1.02	1.04	1.07	1.05	–	–	–	–	0.957	0.963	1.06	0.94
NCI-H661	0.956	0.982	0.9	0.711	–	–	–	–	0.771	0.738	0.616	0.258	0.573	0.712	0.603	0.503	0.952	0.911	0.809	0.961
NCI-H522	1.08	1.1	0.796	0.481	0.85	0.763	0.993	0.762	–	–	–	–	0.817	0.746	0.635	0.672	–	–	–	–
NCI-H1648	0.72	0.802	0.614	0.41	0.657	0.481	0.797	0.855	–	–	–	–	0.491	0.497	0.591	0.497	–	–	–	–
NCI-H1944	0.649	0.487	0.469	0.287	0.539	0.254	0.472	0.5	–	–	–	–	0.405	0.41	0.392	0.385	1.16	1.16	1.02	1.07
COR-L23	0.187	0.185	0.199	0.19	–	–	–	–	1.1	1.04	1.03	0.963	0.547	0.558	0.522	0.476	0.69	0.691	0.796	0.693
NCI-H2170	0.268	0.273	0.249	0.228	0.874	0.765	0.812	0.837	–	–	–	–	0.943	0.898	0.878	0.87	1.17	1.41	1.21	1.18
NCI-H1793	0.828	0.754	0.522	0.276	0.679	0.232	0.243	0.251	–	–	–	–	0.4	0.433	0.298	0.391	–	–	–	–
COR-L 105	1.19	1.04	1.22	0.885	–	–	–	–	1.1	0.658	0.779	0.527	0.451	0.439	0.381	0.433	0.789	0.798	0.782	0.598
